# Where a name gives a salt, the structure may show the parent alone.
# Legend:
# [1] = biological target: T1, RORγt ligand-binding domain (RORγt-LBD) (Homo sapiens, UniProt P51449); experiment: Time-resolved FRET (TR-FRET) RORγt coactivator assay (RIP140 peptide displacement); type: biochemical; details: ligand-dependent coactivator-RORγt binding
# T1 construct: 20 nM recombinantly expressed RORγ-LBD fused to GST
# T1 sequence (P51449 269-508 limits assumed): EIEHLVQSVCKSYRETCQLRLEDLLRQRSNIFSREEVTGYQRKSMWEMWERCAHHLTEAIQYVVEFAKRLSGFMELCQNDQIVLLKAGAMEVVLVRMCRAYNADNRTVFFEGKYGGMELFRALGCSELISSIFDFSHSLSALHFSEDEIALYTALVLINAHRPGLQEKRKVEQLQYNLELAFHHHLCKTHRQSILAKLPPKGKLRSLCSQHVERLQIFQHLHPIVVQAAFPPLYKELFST
# Description: Time-resolved FRET (TR-FRET) RORγt coactivator assay was used to identify RORγ modulator compounds with ligand-dependent coactivator displacement. The assay uses a d2-labeled anti-GST antibody, synthetic N-terminally biotinylated peptide which is derived from nuclear receptor coactivator protein RIP140, and a RORγt ligand-binding domain (RORγt-LBD) that is tagged with glutathione-S-transferase (GST). The influence of compounds on the RORγ-peptide interaction relies on the binding dependent energy transfer from a donor to an acceptor fluorophor attached to the binding partner of interest. […] For reduction of background from compound fluorescence, TR-FRET method makes use of generic fluorophore labels and time resolved detection.
# The assays were done in a final volume of 20 μl in a 384 well plate in a CHAPS buffer (2 mM CHAPS; 1 mM DTT, 2 mM EDTA; 0.1% BSA), containing 20 nM recombinantly expressed RORγ-LBD fused to GST, 30 nM N-terminally biotinylated peptide, 1 nM streptavidin-terbium conjugate and 20 nM d2 labeled-anti-GST. Test compounds were diluted using 10 mM stock solution. The range of the final compound concentrations used in this test was from 0.3 nM to 30 μM (logarithmic scale). DMSO content of the samples was kept at 1%. The assay was equilibrated for 2 hours in the dark at room temperature in 384 well plates (Falcon). The signal was detected by an Ultra384 reader (TECAN). […] Compounds that promote coactivator displacement induce a concentration-dependent decrease in time-resolved fluorescent signal. Data were collected and analyzed using GraphPad Prism software (GraphPad Software V5.02, San Diego Calif. USA). IC50 in μM and E max in % were reported for each compound.
# [2] = biological target: T2, human RORγt (Homo sapiens, UniProt P51449); experiment: RORE Luciferase/RORγt transactivation assay (IL-17 promoter luciferase reporter in COS-7 cells); type: cell-based; design: V5-His (named only through the vector pcDNA3.1D/V5-His-TOPO); expressed in transfected cells; host or cells: COS-7 (monkey kidney); details: RORγt activity inhibition, luciferase activity in transfected COS-7 cells, 20 h
# T2 sequence (P51449 1-497 isoform P51449-2): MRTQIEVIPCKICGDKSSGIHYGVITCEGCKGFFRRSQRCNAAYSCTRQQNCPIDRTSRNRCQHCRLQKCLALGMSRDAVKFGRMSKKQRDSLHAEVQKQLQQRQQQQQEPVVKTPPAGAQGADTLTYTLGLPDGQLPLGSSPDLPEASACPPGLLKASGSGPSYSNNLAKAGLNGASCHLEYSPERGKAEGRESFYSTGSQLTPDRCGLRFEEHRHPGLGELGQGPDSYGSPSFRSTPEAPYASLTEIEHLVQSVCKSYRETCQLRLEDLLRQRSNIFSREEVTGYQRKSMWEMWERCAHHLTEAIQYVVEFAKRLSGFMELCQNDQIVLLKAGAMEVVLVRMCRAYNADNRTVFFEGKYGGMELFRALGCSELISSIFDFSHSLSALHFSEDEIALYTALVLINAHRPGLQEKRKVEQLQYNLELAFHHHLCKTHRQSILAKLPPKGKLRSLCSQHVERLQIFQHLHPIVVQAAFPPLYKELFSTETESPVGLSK
# Protocol: It is well known that RORγ binds to a conserved non-coding sequence (CNS) enhancer element in the IL-17 promoter.
# Culture medium was changed every 2 days.
# The 4.3 Kb human IL-17 promoter containing the RORγ-specific CNS enhancer element was PCR amplified from human genomic DNA and cloned into a pGL3-TKLuc2Cp reporter plasmid.
# The luciferase reporter plasmid and the RORγt overexpression plasmid were transfected into COS-7 cell line using 4 μL JetPEI™/μg of DNA. Briefly, 150 ng of DNA (ration 1/2 between RORE-Tk Luc2Cp and cDNA RORγt or the empty vector for the negative control) was served to transfect adherent COS-7 cells in a […] culture flask, in complete medium (see cos-7 cell line culture).
# Cells were then detached (using trypsin) and washed by centrifugation at 300 g for 10 minutes. Cell pellet was resuspended in serum free/phenol red free DMEM and seeded in 384 well plates at a density of 10000 cells/well and then incubated for 4 h at 37° C.
# Compounds were dissolved in 100% DMSO to obtain 10 mM stock solutions. For each compound, test concentrations were diluted in serum free/phenol red free DMEM using the Genesis Freedom 200™ (TECAN) and added to the cells to obtain a 0.3% DMSO final concentration (in a final volume of 40 μL per well).
# The luciferase activity was then measured with 40 μL/well steady-Glo Luciferase assay system (Promega, Madison, Wis.) and after incubation at room temperature for 30 minutes. The luminescence was estimated using the Ultra384 reader (TECAN). Data were collected and analyzed using GraphPad Prism software (GraphPad Software V5.02, San Diego Calif. USA). IC50 in μM and E max in % were reported for each compound.
IC50 [1],IC50 [2],melting point,Compound
< 1000 nM,< 100 nM,,"COc1ccc(C(NC(=O)C2(c3ccc(N4CCS(=O)(=O)CC4)cc3)CC2)c2ccc(C)o2)c(C)c1 (centres unmarked) [Cpd. 44, 1-[4-(1,1-dioxo-1-thiomorpholin-4-yl)phenyl]-N-[(4-methoxy-2-methylphenyl)(5-methylfuran-2-yl)methyl]cyclopropane-1-carboxamide]"
100 to 1000 nM,100 to 1000 nM,,"Cc1ccc(C(NC(=O)C2(c3ccc(N4CCS(=O)(=O)CC4)cc3)CCC2)c2ccc(C)o2)c(N2CCCCC2)c1 (centres unmarked) [Cpd. 55, 1-[4-(1,1-dioxo-1-thiomorpholin-4-yl)phenyl]-N-{[4-methyl-2-(piperidin-1-yl)phenyl](5-methylfuran-2-yl)methyl}cyclobutane-1-carboxamide]"
< 1000 nM,< 100 nM,,"Cc1ccc(C(NC(=O)C2(c3ccc(N4CCS(=O)(=O)CC4)cc3)CC2)c2ccc(Cl)o2)cc1 (centres unmarked) [Cpd. 67, N-[(5-chlorofuran-2-yl)(4-methylphenyl)methyl]-1-[4-(1,1-dioxo-1-thiomorpholin-4-yl)phenyl]cyclopropane-1-carboxamide]"
1000 to 10000 nM,,,"Cc1ccc(C(NC(=O)Cc2cnc(N3CCS(=O)(=O)CC3)nc2)c2ccc(C)o2)c(Cl)c1 (centres unmarked) [Cpd. 51, N-[(2-chloro-4-methylphenyl)(5-methylfuran-2-yl)methyl]-2-[2-(1,1-dioxo-1-thiomorpholin-4-yl)pyrimidin-5-yl]acetamide]"
< 1000 nM,100 to 1000 nM,,"Cc1ccc(C(NC(=O)C2(c3cccc(N4CCS(=O)(=O)CC4)c3)CC2)c2ccc(C)o2)c(C)c1 (centres unmarked) [Cpd. 68, N-[(2,4-dimethylphenyl)(5-methylfuran-2-yl)methyl]-1-[3-(1,1-dioxo-1-thiomorpholin-4-yl)phenyl]cyclopropane-1-carboxamide]"
< 1000 nM,100 to 1000 nM,,"COc1ccc(C(NC(=O)Cc2cnc(N3CCS(=O)(=O)CC3)nc2)c2ccc(C)o2)c(N2CCCCCC2)c1 (centres unmarked) [Cpd. 45, N-{[2-(azepan-1-yl)-4-methoxyphenyl](5-methylfuran-2-yl)methyl}-2-[2-(1,1-dioxo-1-thiomorpholin-4-yl)pyrimidin-5-yl]acetamide]"
< 1000 nM,100 to 1000 nM,,"COc1cc(CC(=O)NC(c2ccc(C)o2)c2ccc(C)cc2N2CCCCC2)ccc1N1CCS(=O)(=O)CC1 (centres unmarked) [Cpd. 29, 2-[4-(1,1-dioxo-1-thiomorpholin-4-yl)-3-methoxyphenyl]-N-{[4-methyl-2-(piperidin-1-yl)phenyl](5-methylfuran-2-yl)methyl}acetamide]"
100 to 1000 nM,1000 to 10000 nM,,"Cc1ccc(C(NC(=O)Cc2cc(N3CCS(=O)(=O)CC3)ccc2F)c2ccccc2)c(N2CCOCC2)c1 (centres unmarked) [Cpd. 4, 2-[5-(1,1-dioxo-1-thiomorpholin-4-yl)-2-fluorophenyl]-N-{[4-methyl-2-(morpholin-4-yl)phenyl](phenyl)methyl}acetamide]"
100 to 1000 nM,100 to 1000 nM,,"COc1ccc(C(NC(=O)Cc2ccc(N3CCS(=O)(=O)CC3)c(C)c2)c2ccc(C)o2)c(N2CCC(C(F)(F)F)CC2)c1 (centres unmarked) [Cpd. 14, 2-[4-(1,1-dioxo-1-thiomorpholin-4-yl)-3-methylphenyl]-N-({4-methoxy-2-[4-(trifluoromethyl)piperidin-1-yl]phenyl}(5-methylfuran-2-yl)methyl)acetamide]"
100 to 1000 nM,1000 to 10000 nM,,"Cc1ccc(C(NC(=O)Cc2cc(N3CCS(=O)(=O)CC3)ccc2C)c2ccccc2)c(N2CCOCC2)c1 (centres unmarked) [Cpd. 7, 2-[5-(1,1-dioxo-1-thiomorpholin-4-yl)-2-methylphenyl]-N-{[4-methyl-2-(morpholin-4-yl)phenyl](phenyl)methyl}acetamide]"
100 to 1000 nM,100 to 1000 nM,,"Cc1ccc(C(NC(=O)C(C)(C)c2ccc(N3CCS(=O)(=O)CC3)cc2)c2ccc(C)o2)c(N2CCCCC2)c1 (centres unmarked) [Cpd. 56, 2-[4-(1,1-dioxo-1-thiomorpholin-4-yl)phenyl]-2-methyl-N-{[4-methyl-2-(piperidin-1-yl)phenyl](5-methylfuran-2-yl)methyl}propanamide]"
1000 to 10000 nM,100 to 1000 nM,,"Cc1ccc(C(NC(=O)C2(c3ccc(N4CCS(=O)(=O)CC4)cc3)CC2)c2ccc(C)o2)c(C)c1 (centres unmarked) [Cpd. 64, N-[(2,4-dimethylphenyl)(5-methylfuran-2-yl)methyl]-1-[4-(1,1-dioxo-1-thiomorpholin-4-yl)phenyl]cyclopropane-1-carboxamide]"
100 to 1000 nM,< 100 nM,,"Cc1ccc(C(NC(=O)C2(c3ccc(N4CCS(=O)(=O)CC4)c(Br)c3)CC2)c2ccc(C)o2)c(N2CCCCC2)c1 (centres unmarked) [Cpd. 37, 1-[3-bromo-4-(1,1-dioxo-1-thiomorpholin-4-yl)phenyl]-N-{[4-methyl-2-(piperidin-1-yl)phenyl](5-methylfuran-2-yl)methyl}cyclopropane-1-carboxamide]"
100 to 1000 nM,1000 to 10000 nM,,"Cc1ccc(N2CCCCC2)c(C(NC(=O)Cc2cnc(N3CCS(=O)(=O)CC3)nc2)c2ccc(C)o2)c1 (centres unmarked) [Cpd. 17, 2-[2-(1,1-dioxo-1-thiomorpholin-4-yl)pyrimidin-5-yl]-N-{[5-methyl-2-(piperidin-1-yl)phenyl](5-methylfuran-2-yl)methyl}acetamide]"
< 1000 nM,100 to 1000 nM,,"Cc1ccc(C(NC(=O)Cc2cnc(N3CCS(=O)(=O)CC3)nc2)c2ccc(C)o2)c(N2CC3CC3C2)c1 (centres unmarked) [Cpd. 36, N-[(2-{3-azabicyclo[3.1.0]hexan-3-yl}-4-methylphenyl)(5-methylfuran-2-yl)methyl]-2-[2-(1,1-dioxo-1-thiomorpholin-4-yl)pyrimidin-5-yl]acetamide]"
< 1000 nM,100 to 1000 nM,,"Cc1ccc(C(NC(=O)C(C)(C)c2ccc(N3CCS(=O)(=O)CC3)cc2)c2ccc(C)o2)c(C)c1 (centres unmarked) [Cpd. 40, N-[(2,4-dimethylphenyl)(5-methylfuran-2-yl)methyl]-2-[4-(1,1-dioxo-1-thiomorpholin-4-yl)phenyl]-2-methylpropanamide]"
,,174 °C,"COc1ccc(C2(C(=O)NC(c3ccc(C)o3)c3ccc(C)cc3C)CC2)cc1N1CCS(=O)(=O)CC1 (centres unmarked) (as salt: HCl) [Cpd. 69, N-[(2,4-dimethylphenyl)(5-methylfuran-2-yl)methyl]-1-[3-(1,1-dioxo-1-thiomorpholin-4-yl)-4-methoxyphenyl]cyclopropane-1-carboxamide]"

# — patent publication US11077115B2, “Rorgamma modulators and uses thereof” (Genfit, priority 2017, dated 2021)
